# In patent US20210137960A1, “COMPOSITIONS AND METHODS FOR INHIBITION OF NUCLEAR-PENETRATING ANTIBODIES” (Yale University, priority 2018, published 2021):
# Where a chain is given by its changes, count along the chain named. Like-named read-outs stand apart in the source and are kept apart here.
# B1: 5C6: monoclonal anti-DNA antibody with nucleolytic activity from MRL/lpr lupus mouse model hybridoma (antibody, listed as Mus musculus, V domains shown)
# VL: DIVLTQSPASLAAVSLGERATISYRASKSVSTSGYSYMHWNQQKPGQAPRLLIYLVSNLESGVPARFSGSGSGTDFTLNIHPVEEEDAATYYCQHIRELDTFFGGGTKLEIK
# VH: QLKLVESGGGLVKPGGSLKLSCAASGFTFSSYTMSWVRQTPAKRLEWVATISSGGGSTYYPDSVKGRFTISRDNARNTLYLQMSSLRSEDTAMYYCARRAYSKRGAMDYWGQGTSVTVSS
# B2: variant 10: humanized 3E10 variant, SEQ ID NOS:14, 22, and 32 (protein)
# chain 1: EVQLVESGGGLVQPGGSLRLSCAASGFTFSNYGMHWVRQAPGKGLEWVSYISSSSSTIYYADSVKGRFTISRDNAKNSLYLQMNSLRAEDTAVYYCARRGLLLDYWGQGTTVTVSS
# chain 2: DIQMTQSPSSLSASVGDRVTITCRASKSVSTSSYSYMHWYQQKPGKAPKLLIKYASYLESGVPSRFSGSGSGTDFTLTISSLQPEDFATYYCQHSREFPWTFGQGTKVEIK
# chain 3: DIQMTQSPSSLSASVGDRVTITCRASKSVSTSSYSYMHWYQQKPGKAPKLLIKYASYLESGVPSRFSGSGSGTDFTLTISSLQPEDFATYYCQHSREFPWTFGQGTKVEIKRADAAPGGGGSGGGGSGGGGSEVQLVESGGGLVQPGGSLRLSCAASGFTFSNYGMHWVRQAPGKGLEWVSYISSSSSTIYYADSVKGRFTISRDNAKNSLYLQMNSLRAEDTAVYYCARRGLLLDYWGQGTTVTVSSASTKGPSVFPLAPLESSGSDIQMTQSPSSLSASVGDRVTITCRASKSVSTSSYSYMHWYQQKPGKAPKLLIKYASYLESGVPSRFSGSGSGTDFTLTISSLQPEDFATYYCQHSREFPWTFGQGTKVEIKRADAAPGGGGSGGGGSGGGGSEVQLVESGGGLVQPGGSLRLSCAASGFTFSNYGMHWVRQAPGKGLEWVSYISSSSSTIYYADSVKGRFTISRDNAKNSLYLQMNSLRAEDTAVYYCARRGLLLDYWGQGTTVTVSS
# B3: variant 13: humanized 3E10 variant, SEQ ID NOS:17, 23, and 35, expressed in a CHO cell system (protein)
# chain 1: B2 chain 1 with S54G
# chain 2: B2 chain 2 with V15L, V19A, S28T, K46Q, A47P, F87A, Q104G
# chain 3: DIQMTQSPSSLSASLGDRATITCRASKTVSTSSYSYMHWYQQKPGQPPKLLIKYASYLESGVPSRFSGSGSGTDFTLTISSLQPEDAATYYCQHSREFPWTFGGGTKVEIKRADAAPGGGGSGGGGSGGGGSEVQLVESGGGLVQPGGSLRLSCAASGFTFSNYGMHWVRQAPGKGLEWVSYISSGSSTIYYADSVKGRFTISRDNAKNSLYLQMNSLRAEDTAVYYCARRGLLLDYWGQGTTVTVSSASTKGPSVFPLAPLESSGSDIQMTQSPSSLSASLGDRATITCRASKTVSTSSYSYMHWYQQKPGQPPKLLIKYASYLESGVPSRFSGSGSGTDFTLTISSLQPEDAATYYCQHSREFPWTFGGGTKVEIKRADAAPGGGGSGGGGSGGGGSEVQLVESGGGLVQPGGSLRLSCAASGFTFSNYGMHWVRQAPGKGLEWVSYISSGSSTIYYADSVKGRFTISRDNAKNSLYLQMNSLRAEDTAVYYCARRGLLLDYWGQGTTVTVSS
# Legend:
# [1] = tested on: DLD1 colon cancer cells; test: Protein L immunodetection of variant 13 nuclear penetration with importin pathway inhibitors, DLD1; format: cell-based; settings: 10 μM variant 13 co-incubated with 0, 10, 25, or 50 μM inhibitor
# Procedure: (§1) For all experiments, cells were cultivated overnight to allow for attachment, followed by pretreatment with either control medium (absence of inhibitor), or medium containing inhibitor for durations previously-reported in the literature (see Table 5, below).
# (§2) For endocytosis inhibition experiments, cells were cultivated in serum-free medium containing 1% v/v BSA to deplete endogenous serum levels. Following preincubation with inhibitors, cells were treated with either control medium or 10 μM variant 13, and the same dose of small molecule inhibitor for a further 30 minutes. For all experiments, cells were washed thrice, followed by immediate fixation with pre-chilled ice-cold ethanol. Subsequently, treated cells were probed using a protein L immunodetection approach to probe variant 13 nuclear uptake (Rattray et al., Biochem Biophys Res Commun 496, 858-864 (2018)). All monolayers were immediately imaged following color development on an Evos Fl microscope.
# (§3) DLD-1 and A549 cells were treated with 10 μM variant 13 co-incubated with 0, 10, 25, or 50 μM concentrations of ivermectin. Relative intensity of protein L nuclear staining as compared to amount of stain in cells treated without ivermectin was also quantified by ImageJ.
# (§4) DLD-1 cells and A549 cells were treated with 10 μM variant 13 co-incubated with 0, 10, 25, or 50 μM concentrations of importazole and then immunostained for protein L.
# (§5) DLD-1 cells and A549 cells were treated with 10 μM variant 13 co-incubated with 0, 10, 25, or 50 μM concentrations of mifepristone and then immunostained for protein L.
# [2] = tested on: A549 lung cancer cells; test: Protein L immunodetection of variant 13 nuclear penetration with importin pathway inhibitors, A549; format: cell-based; settings: 10 μM variant 13 co-incubated with 0, 10, 25, or 50 μM inhibitor
# Procedure: as §1, §2, §3, §4, §5
# [3] = tested on: MCF7 breast cancer cells; test: Uptake of rhodamine-labeled variant 13 in live cells, light and fluorescence microscopy, MCF7; format: cell-based; settings: 50 μM ivermectin
# Procedure: Live MCF7 breast cancer cells were treated with control or rhodamine-labeled variant 13 (Rh-variant 13)+/−50 μM ivermectin and were then visualized under light and fluorescence microscopy.
# [4] = tested on: DLD1 cells; test: SLE sera nuclear import with nuclear import inhibitors, anti-human IgG immunostain; format: cell-based; settings: for effect on nuclear uptake of ANAs in SLE-19: SLE-19 serum
# Procedure: DLD1 cells were pre-treated with either control media, or media containing nuclear import inhibitors for four hours. Subsequent co-treatment with inhibitor and patient SLE serum (diluted 1:50) was performed for one hour at 37° C. Following treatment, cells were fixed, blocked and probed with an alkaline-phosphatase anti-human IgG […] antibody overnight (Fisher Scientific). Cell monolayers were washed, and color developed using NBT/BCIP reagent (Fisher Scientific) for the same duration across all experiments. Following chromogen color development, all monolayers were washed, and brightfield images acquired immediately on an Evos F microscope.
# [5] = tested on: DLD1 cells; test: Nuclear penetration of scleroderma autoantibody SSC and effect of ivermectin, microscopic analysis; format: cell-based
# Description: In addition to SLE, cell-penetrating autoantibodies are detected in other autoimmune diseases such as scleroderma. […] SSC was expressed in and purified from HEK293T cells.
# [6] = tested on: DLD1 cancer cells; test: Uptake of rhodamine-labeled variant 13 in live cells, light and fluorescence microscopy, DLD1; format: cell-based; settings: 50 μM importazole
# Procedure: Live DLD1 cancer cells were treated with control or rhodamine-labeled variant 13 (Rh-variant 13)+/−50 μM importazole and were then visualized under light and fluorescence microscopy.
# [7] = tested on: cell nuclei; settings: known anti-dsDNA autoantibodies; cited from earlier work
# [8] = tested on: cell nuclei; test: Nuclear penetration of humanized 3E10 variants compared with original 3E10 (D31N) di-scFv; format: cell-based; settings: for Nuclear localizing?: humanized 3E10 variants; for nuclear penetration compared to the prototype: vs original 3E10 (D31N) di-scFv
# Description: A range of humanized 3E10 variants were generated with subtle differences in framework and CDR sequences.
Molecule,effect on nuclear penetration by variant 13 [1],effect on nuclear penetration by variant 13 [2],effect on nuclear uptake of ANAs in SLE-19 [4],Nuclear localizing? [8],nuclear penetration compared to the prototype [8],other results
"22,23-dihydroavermectin B1a/B1b [ivermectin]",dose-dependent reduction in nuclear penetration,dose-dependent reduction in nuclear penetration,,,,"effect on cellular/nuclear uptake of rhodamine-labeled variant 13 [3]: inhibited cellular/nuclear uptake; effect on nuclear staining by ANAs in SLE sera ([4]; SLE-4, 8, 9, and 19 serum diluted 1:50, pre- and co-treatment): reduced the nuclear staining associated with each sample; effect on nuclear uptake of SSC [5]: inhibited the nuclear uptake of SSC"
"CC#C[C@]1(O)CC[C@H]2[C@@H]3CCC4=CC(=O)CCC4=C3[C@@H](c3ccc(N(C)C)cc3)C[C@@]21C [mifepristone, 11β-(4-Dimethylamino)phenyl-170-hydroxy-17-(1-propynyl)-estra-4,9-dien-3-one]",reduction in nuclear penetration,reduction in nuclear penetration,inhibit nuclear uptake of ANAs in SLE-19 in a dose-dependent manner,,,
"CC(Nc1nc(N2CCCC2)nc2ccccc12)c1ccccc1 (centres unmarked) [importazole, N-(1-phenylethyl)-2-pyrrolidin-1-ylquinazolin-4-amine]",reduction in nuclear penetration,reduction in nuclear penetration,inhibit nuclear uptake of ANAs in SLE-19 in a dose-dependent manner,,,effect on nuclear uptake of rhodamine-labeled variant 13 [6]: inhibited nuclear uptake
B1,,,,,,Nuclear localizing? [7]: Yes
B2,,,,Yes,penetrated nuclei very well,
B3,,,,Yes,penetrated nuclei very well,
